Values belong to the compound of their own block, whether it stands above or below them. Activity calls are given as the source filed them. Unless noted, the calls are words filed in the database; no cut-off is given here.
Columns and labels:
Format in all cases: functional
[1] = target: Kappa-type opioid receptor (Homo sapiens, UniProt P41145); assay: SAR analysis of small molecule agonists of the kappa opioid receptor via a luminescent beta-arrestin assay - Set 3. [Related pubchem assays (depositor defined):AID1777, AID1785, AID1786, AID1966, AID2133, AID2136, AID2284, AID2500]
Chain of Kappa-type opioid receptor (P41145 whole entry): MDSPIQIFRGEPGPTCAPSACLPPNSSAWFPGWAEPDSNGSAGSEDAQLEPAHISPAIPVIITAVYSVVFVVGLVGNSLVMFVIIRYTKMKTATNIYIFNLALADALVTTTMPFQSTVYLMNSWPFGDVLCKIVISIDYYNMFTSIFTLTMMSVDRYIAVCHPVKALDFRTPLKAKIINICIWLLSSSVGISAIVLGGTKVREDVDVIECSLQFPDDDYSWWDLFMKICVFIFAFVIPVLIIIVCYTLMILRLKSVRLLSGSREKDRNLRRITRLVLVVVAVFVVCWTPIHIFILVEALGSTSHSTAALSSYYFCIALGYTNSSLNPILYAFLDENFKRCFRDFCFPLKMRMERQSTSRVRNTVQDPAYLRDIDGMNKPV

[2] = target: Intestinal-type alkaline phosphatase (Homo sapiens, UniProt P09923); assay: inhibition of human intestinal alkaline phosphatase – biochemical, dose response (AID 488876)
[3] = target: Intestinal-type alkaline phosphatase (Mus musculus, UniProt P24822); assay: PubChem AID 488785
[4] = target: T1, Alkaline phosphatase, tissue-nonspecific isozyme (Homo sapiens, UniProt P05186); assay: TNAP enzyme inhibition by screening hits, dose response, selectivity assay for mouse IAP inhibitor project, biochemical, human TNAP, uHTS hits (AID 488906)
T1 sequence (P05186 whole entry): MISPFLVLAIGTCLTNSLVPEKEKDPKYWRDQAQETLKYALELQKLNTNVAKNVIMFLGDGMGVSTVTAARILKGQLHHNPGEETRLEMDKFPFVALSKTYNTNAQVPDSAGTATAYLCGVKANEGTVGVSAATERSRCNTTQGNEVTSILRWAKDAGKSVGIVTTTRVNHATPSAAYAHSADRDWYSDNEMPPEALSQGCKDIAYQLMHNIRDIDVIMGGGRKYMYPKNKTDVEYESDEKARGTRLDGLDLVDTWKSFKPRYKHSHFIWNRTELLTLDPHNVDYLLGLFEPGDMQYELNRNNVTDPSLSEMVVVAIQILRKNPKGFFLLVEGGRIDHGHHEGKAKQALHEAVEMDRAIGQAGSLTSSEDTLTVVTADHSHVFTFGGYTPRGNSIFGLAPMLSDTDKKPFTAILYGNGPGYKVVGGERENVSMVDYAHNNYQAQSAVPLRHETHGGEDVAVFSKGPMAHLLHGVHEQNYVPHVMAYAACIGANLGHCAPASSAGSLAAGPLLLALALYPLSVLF

[5] = target: T2, Sphingosine 1-phosphate receptor 4 (Homo sapiens, UniProt O95977); assay: Fluorescence dose response cell-based high throughput screening assay for agonists of the Sphingosine 1-Phosphate Receptor 4 (S1P4). [Related pubchem assays: 1509 (Primary screen.), 1523 (Confirmation screen in triplicates.)]
T2 sequence (O95977 whole entry): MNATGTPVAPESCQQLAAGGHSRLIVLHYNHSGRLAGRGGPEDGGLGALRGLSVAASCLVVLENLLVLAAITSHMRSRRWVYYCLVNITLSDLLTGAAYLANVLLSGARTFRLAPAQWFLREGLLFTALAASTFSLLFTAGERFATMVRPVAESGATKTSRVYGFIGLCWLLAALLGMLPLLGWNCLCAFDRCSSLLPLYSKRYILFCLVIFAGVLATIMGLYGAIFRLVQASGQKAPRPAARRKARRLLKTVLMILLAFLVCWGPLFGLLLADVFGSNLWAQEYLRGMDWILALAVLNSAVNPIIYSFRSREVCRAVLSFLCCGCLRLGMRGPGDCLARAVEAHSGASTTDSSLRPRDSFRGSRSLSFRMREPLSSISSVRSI

[6] = target: Sphingosine 1-phosphate receptor 1 (Homo sapiens, UniProt P21453); assay: Fluorescence-based counterscreen assay for S1P4 agonists: Cell-based dose response high throughput screening assay to identify agonists of the Sphingosine 1-Phosphate Receptor 1 (S1P1). [Related pubchem assays (depositor defined):AID1509, AID1523, AID1801, AID463107, AID463118, AID463119, AID463122, AID463123, AID463129, AID463225, AID504400, AID504460]
Chain of Sphingosine 1-phosphate receptor 1 (P21453 whole entry): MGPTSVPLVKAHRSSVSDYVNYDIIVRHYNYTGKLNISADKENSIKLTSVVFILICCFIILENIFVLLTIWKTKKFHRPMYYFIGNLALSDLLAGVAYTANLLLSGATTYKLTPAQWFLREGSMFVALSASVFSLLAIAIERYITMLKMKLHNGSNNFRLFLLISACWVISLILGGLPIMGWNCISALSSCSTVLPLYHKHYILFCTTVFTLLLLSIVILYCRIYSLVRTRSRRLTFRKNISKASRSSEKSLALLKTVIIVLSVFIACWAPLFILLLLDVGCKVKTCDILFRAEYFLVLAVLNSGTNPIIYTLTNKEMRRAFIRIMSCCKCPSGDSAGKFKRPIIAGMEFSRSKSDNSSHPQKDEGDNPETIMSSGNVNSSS

[7] = target: Metabotropic glutamate receptor 5 (Rattus norvegicus, UniProt P31424); assay: Modulation of the Metabotropic Glutamate Receptor mGluR4: Selectivity at mGluR5. [Related pubchem assays (depositor defined):AID2437, AID2807]
[8] = target: Metabotropic glutamate receptor 6 (Homo sapiens, UniProt O15303); assay: Modulation of the Metabotropic Glutamate Receptor mGluR4: Selectivity at mGluR6. [Related pubchem assays (depositor defined):AID2437, AID2807]
[9] = target: Metabotropic glutamate receptor 7 (Rattus norvegicus, UniProt P35400); assay: Modulation of the Metabotropic Glutamate Receptor mGluR4: Selectivity at mGluR7. [Related pubchem assays (depositor defined):AID2437, AID2807]
[10] = target: T3, Metabotropic glutamate receptor 4 (Rattus norvegicus, UniProt P31423); assay: Modulation of the Metabotropic Glutamate Receptor mGluR4: Rat PAM Potency. [Related pubchem assays (depositor defined):AID2437, AID2807]
T3 sequence (P31423 whole entry): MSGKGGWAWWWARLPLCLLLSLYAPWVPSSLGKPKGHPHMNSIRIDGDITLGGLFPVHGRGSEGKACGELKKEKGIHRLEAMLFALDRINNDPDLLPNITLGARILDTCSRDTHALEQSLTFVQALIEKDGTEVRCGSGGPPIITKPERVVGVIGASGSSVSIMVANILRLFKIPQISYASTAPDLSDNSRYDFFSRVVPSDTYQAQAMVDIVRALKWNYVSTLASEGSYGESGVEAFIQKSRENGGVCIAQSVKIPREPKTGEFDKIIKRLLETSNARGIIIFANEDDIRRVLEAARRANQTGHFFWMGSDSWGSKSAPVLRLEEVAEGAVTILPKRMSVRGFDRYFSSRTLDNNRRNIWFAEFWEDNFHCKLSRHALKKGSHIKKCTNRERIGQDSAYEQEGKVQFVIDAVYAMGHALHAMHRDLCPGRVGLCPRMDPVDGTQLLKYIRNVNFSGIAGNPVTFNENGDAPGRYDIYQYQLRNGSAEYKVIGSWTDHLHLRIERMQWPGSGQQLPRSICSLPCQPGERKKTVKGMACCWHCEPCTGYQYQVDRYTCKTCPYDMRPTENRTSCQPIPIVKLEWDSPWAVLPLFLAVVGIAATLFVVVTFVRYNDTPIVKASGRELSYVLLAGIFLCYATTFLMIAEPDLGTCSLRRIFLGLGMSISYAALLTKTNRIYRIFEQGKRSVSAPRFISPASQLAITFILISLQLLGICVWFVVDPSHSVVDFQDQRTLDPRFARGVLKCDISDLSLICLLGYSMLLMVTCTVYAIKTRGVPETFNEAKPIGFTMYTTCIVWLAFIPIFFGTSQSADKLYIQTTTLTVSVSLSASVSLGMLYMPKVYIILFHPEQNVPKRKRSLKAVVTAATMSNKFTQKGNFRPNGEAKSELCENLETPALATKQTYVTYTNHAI

[11] = target: Metabotropic glutamate receptor 1 (Rattus norvegicus, UniProt P23385); assay: Modulation of the Metabotropic Glutamate Receptor mGluR4: Selectivity at mGluR1. [Related pubchem assays (depositor defined):AID2437, AID2807]
Chain of Metabotropic glutamate receptor 1 (P23385 whole entry): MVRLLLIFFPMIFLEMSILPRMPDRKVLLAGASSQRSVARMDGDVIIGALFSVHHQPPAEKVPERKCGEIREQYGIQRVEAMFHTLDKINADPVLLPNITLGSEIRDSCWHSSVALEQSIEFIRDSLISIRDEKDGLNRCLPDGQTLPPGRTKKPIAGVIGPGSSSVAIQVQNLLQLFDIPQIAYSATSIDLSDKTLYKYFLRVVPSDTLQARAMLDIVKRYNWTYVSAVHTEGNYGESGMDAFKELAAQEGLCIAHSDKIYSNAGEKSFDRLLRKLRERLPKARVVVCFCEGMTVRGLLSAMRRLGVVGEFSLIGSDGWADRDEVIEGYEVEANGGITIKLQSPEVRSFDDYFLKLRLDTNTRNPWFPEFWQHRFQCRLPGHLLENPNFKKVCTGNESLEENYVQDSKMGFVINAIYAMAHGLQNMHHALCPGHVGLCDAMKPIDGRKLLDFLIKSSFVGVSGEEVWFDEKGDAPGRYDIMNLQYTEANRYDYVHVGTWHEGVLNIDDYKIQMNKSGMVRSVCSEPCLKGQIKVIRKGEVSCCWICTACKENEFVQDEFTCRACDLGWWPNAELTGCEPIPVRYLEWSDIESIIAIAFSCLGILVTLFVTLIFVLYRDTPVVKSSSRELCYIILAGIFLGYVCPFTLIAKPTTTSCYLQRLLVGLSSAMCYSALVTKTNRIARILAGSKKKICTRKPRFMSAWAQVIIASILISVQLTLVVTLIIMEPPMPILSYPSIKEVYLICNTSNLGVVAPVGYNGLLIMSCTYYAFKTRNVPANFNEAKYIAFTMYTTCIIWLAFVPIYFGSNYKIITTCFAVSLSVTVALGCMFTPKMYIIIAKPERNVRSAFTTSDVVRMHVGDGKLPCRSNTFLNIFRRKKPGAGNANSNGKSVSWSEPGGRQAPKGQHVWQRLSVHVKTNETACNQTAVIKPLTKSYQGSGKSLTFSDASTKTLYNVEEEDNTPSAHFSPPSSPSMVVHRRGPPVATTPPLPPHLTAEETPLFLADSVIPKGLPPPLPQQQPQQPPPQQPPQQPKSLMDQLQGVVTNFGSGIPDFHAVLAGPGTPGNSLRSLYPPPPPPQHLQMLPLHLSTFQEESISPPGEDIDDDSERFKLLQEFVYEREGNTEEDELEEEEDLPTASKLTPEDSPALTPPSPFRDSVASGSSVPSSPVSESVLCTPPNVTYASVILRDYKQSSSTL

[12] = target: T3, Metabotropic glutamate receptor 4; assay: Modulation of the Metabotropic Glutamate Receptor mGluR4: Selectivity at mGluR4. [Related pubchem assays (depositor defined):AID2437, AID2807]
[13] = target: Metabotropic glutamate receptor 3 (Rattus norvegicus, UniProt P31422); assay: Modulation of the Metabotropic Glutamate Receptor mGluR4: Selectivity at mGluR3. [Related pubchem assays (depositor defined):AID2437, AID2807]
Chain of Metabotropic glutamate receptor 3 (P31422 whole entry): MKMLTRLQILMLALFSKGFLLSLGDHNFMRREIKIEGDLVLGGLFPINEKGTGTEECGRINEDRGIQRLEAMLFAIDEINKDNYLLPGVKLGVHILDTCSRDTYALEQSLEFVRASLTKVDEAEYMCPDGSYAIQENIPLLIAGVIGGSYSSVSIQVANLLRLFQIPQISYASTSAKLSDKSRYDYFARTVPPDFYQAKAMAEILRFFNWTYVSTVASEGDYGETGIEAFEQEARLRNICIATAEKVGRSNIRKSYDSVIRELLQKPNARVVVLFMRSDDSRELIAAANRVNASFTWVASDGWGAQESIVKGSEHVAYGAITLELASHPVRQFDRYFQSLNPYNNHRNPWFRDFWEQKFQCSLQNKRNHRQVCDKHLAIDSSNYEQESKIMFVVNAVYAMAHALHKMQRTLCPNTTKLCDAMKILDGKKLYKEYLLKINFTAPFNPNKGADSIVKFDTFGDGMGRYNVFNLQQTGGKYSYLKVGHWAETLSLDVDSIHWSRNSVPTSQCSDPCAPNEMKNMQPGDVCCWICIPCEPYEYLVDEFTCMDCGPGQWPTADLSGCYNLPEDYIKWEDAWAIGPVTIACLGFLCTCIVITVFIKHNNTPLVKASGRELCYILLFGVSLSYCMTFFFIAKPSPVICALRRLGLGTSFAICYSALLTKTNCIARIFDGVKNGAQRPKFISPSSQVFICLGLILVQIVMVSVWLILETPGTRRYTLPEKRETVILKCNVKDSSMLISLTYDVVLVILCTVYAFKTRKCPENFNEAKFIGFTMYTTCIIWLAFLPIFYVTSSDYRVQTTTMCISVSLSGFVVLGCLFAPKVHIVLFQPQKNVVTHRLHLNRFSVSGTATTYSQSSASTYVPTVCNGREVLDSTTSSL

[14] = target: Metabotropic glutamate receptor 8 (Rattus norvegicus, UniProt P70579); assay: Modulation of the Metabotropic Glutamate Receptor mGluR4: Selectivity at mGluR8. [Related pubchem assays (depositor defined):AID2437, AID2807]
Chain of Metabotropic glutamate receptor 8 (P70579 whole entry): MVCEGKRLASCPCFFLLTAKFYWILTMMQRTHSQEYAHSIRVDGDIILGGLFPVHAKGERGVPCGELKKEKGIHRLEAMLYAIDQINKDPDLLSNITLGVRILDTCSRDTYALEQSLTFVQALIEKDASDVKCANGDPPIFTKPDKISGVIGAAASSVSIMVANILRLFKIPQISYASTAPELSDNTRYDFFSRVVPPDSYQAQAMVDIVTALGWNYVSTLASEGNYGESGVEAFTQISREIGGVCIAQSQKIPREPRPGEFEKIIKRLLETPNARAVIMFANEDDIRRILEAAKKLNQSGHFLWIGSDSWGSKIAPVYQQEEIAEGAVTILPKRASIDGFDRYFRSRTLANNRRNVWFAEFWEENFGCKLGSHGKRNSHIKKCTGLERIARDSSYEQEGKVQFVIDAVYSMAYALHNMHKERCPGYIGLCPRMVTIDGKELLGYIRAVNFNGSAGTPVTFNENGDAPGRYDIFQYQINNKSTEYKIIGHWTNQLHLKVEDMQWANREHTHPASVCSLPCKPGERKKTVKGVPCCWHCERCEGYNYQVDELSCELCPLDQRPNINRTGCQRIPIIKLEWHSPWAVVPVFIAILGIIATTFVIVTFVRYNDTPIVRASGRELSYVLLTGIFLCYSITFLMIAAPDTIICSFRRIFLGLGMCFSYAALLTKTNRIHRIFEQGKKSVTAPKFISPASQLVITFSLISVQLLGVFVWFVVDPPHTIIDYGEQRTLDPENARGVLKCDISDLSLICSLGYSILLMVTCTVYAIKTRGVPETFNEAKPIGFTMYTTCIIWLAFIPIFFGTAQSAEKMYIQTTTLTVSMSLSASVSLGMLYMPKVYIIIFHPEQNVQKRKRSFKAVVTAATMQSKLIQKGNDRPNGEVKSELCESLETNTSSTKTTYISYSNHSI

[15] = target: Metabotropic glutamate receptor 2 (Rattus norvegicus, UniProt P31421); assay: rat mGluR2 glutamate potency shift by compounds, selectivity assay for mGluR4 modulator project, cell-based (AID 2188)

EC50 [1]: 13100 nM (inactive)
SMILES: Cc1ccc2[nH]c(=O)c(CN(CCC(C)C)C(=O)c3ccccn3)cc2c1

IC50 [2]: 9420 nM (active)
IC50 [3]: 2340 nM (active)
IC50 [4]: 17100 nM (active)
SMILES: NS(=O)(=O)c1cccc(NC(=O)CSc2nnc(-c3ccncc3)n2C2CC2)c1

EC50 [5]: > 49800 nM (not active)
EC50 [6]: > 49800 nM (inactive)
SMILES: Cc1cc(C)nc(N/N=C/c2ccc(N3CCOCC3)cc2)n1

EC50 [7]: 1240 nM (inactive)
EC50 [8]: 1250 nM (active)
Activity EC50 [9]: 163000 nM
EC50 [10]: 295 nM (active)
EC50 [11]: 1170 nM (inactive)
EC50 [12]: 597 nM (active)
EC50 [13]: 811 nM (inactive)
EC50 [14]: 9140 nM (inactive)
EC50 [15]: 1470 nM (inactive)
SMILES: O=C(Nc1cccc(Cl)c1)c1ccccn1

From ChEMBL document CHEMBL1201862, “PubChem BioAssay data set” (2004)
